Source: PubChem BioAssay AID2060499 (Molecular Pharmacology Branch, DTP, NCI, 2025)
Where “and” joins values, the source holds several entries; their conditions need not be identical. Identical values can stand only once.

Tested on: 777334-354-R2-J4-PDC tumor spheroids with HUVEC/MSC, viability
Experiment: Anticancer human tumor 777334-354-R2-J4-PDC patient-derived pancreatic adenocarcinoma cell line growth inhibition [GQUAD]
Conditions: for viability, T/C: stronger effect = lower value
Source text: DNA G-quadruplex Stabilizer Agents in Combinations in Complex Spheroids
A high-throughput screen of multi-cell type tumor spheroids was designed to identify active combinations of DNA G-quadruplex stabilizer agents and targeted small molecules. Complex spheroids include a stromal component modeled by human endothelial cells (HUVEC) and fibroblasts modeled by human mesenchymal stem cells (MSCs). The concentration ranges selected for each drug and investigational agent were based upon clinically achievable concentrations if the clinical Cmax of the agent was known.
Compounds. The drugs and investigational agents: pidnarulex (CX-5461; NSC782164), APTO-253 (NSC789042), BRACO-19 (NSC847499), peposertib (NSC802822), ceralasertib (NSC780249), elimusertib (NSC800525), camonsertib (NSC841442), AZD-1390 (NSC803789), olaparib (NSC753686), talazoparib (NSC767125), ART-558 (NSC835418), sotorasib (NSC818433), MRTX-1133 (NSC836407), SN-38 (NSC673596), topotecan (NSC609699), etoposide (NSC141540), doxorubicin (NSC123127), gemcitabine (NSC613327), 5-fluorouracil (NSC19893), paclitaxel (NSC125973), vemurafenib (NSC761431), panobinostat (NSC761190), R-306465 (JNJ-16241199; NSC773264), adavosertib (NSC754352), TP-3654 (NSC805149), carboplatin (NSC241240), KSQ-4279 (NSC840948), and staurosporine (NSC755774) were obtained from the National Cancer Institute (NCI) Developmental Therapeutics Program Chemical Repository (34). The FDA-approved anticancer drug set is available from the NCI Developmental Therapeutics Program. […] The stock solutions were prepared in dimethyl sulfoxide (DMSO, Sigma-Aldrich, St. Louis, MO, cat. D2650) at 800-fold the tested concentration and stored at -70 degrees C prior to their use. All drugs and investigational agents were tested over a range starting from a high concentration at or near the clinical Cmax and decreasing in half-log increments. If the clinical Cmax for an agent had not been determined, the highest concentration tested was 10 microM.
2.3 Cell Culture. All cells were maintained in an incubator at 37 degrees C and 5% CO2 with 95% humidity. The PDC lines were cultured according to standard operating procedures established by the NCI PDMR. All PDCs were thawed and cultured in Matrigel-coated flasks prepared with a working solution of 1X Ham's F-12 nutrient mix, without supplementation (Invitrogen, cat. 11765054), 100 U/mL penicillin-streptomycin (Invitrogen, cat. 15140122), and 2.5% Matrigel (Corning Inc., cat. 354248) for the first three passages. The 857933-349-R-J2-PDC line was cultured in 6C/Colon 1B media, which includes advanced DMEM/F-12 (Thermo Fisher Scientific, cat. 12634028), 10 mM HEPES (Thermo Fisher Scientific, cat. 15630080), 1X GlutaMAX supplement (Thermo Fisher Scientific, cat. 35050061), 0.1 mg/mL primocin (InvivoGen, cat. ant-pm-2), 10% defined fetal bovine serum, heat inactivated (HyClone Laboratories Inc., cat. SH30070.03HI), 50% L-WRN conditioned media (ATCC, cat. CRL-3276), 1.25 mM N-Acetyl-L-cysteine (Sigma-Aldrich, cat. A9165), 10 mM nicotinamide (Sigma-Aldrich, cat. N0636), 1X B-27 supplement (Thermo Fisher Scientific, cat. 17504044), 1X N-2 supplement (Thermo Fisher Scientific, cat. 17502048), 10 microM Y-27632 dihydrochloride (Tocris Bioscience, cat. 1254), and 50 ng/mL human EGF recombinant protein (Thermo Fisher Scientific, cat. PHG0311). The 485176-168-R4-J1-PDC line was cultured in Panc media, which includes all 6C/Colon 1B media components plus 100 ng/mL human FGF-10 (Thermo Fisher Scientific, cat. 100-26), 500 nM SB-431542 (Selleckchem, cat. S1067), and gastrin (Tocris, cat. 3006).
[…]
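Also: spheroids exposed to compounds for 7 days before readout.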

Structure (SMILES) | viability, T/C (compound 0.0316 µM) | viability, T/C (compound 0.1 µM) | viability, T/C (compound 0.316 µM) | viability, T/C (compound 1 µM) | viability, T/C (compound 3.16 µM) | viability, T/C (compound 10 µM) | IC50 (curve of compound) | viability, T/C (compound 0.000999 µM) | viability, T/C (compound 0.00316 µM) | viability, T/C (compound 0.00999 µM) | viability, T/C (compound 0.0999 µM) | IC50 (compound alone, run of 03/26/2024) [nM]
C#Cc1c(F)ccc2cc(O)cc(-c3ncc4c(N5CC6CCC(C5)N6)nc(OCC56CCCN5CC(F)C6)nc4c3F)c12 (stereo unspecified) | 45.7% and 46.4% and 48.8% | 38.8% and 41.4% and 41.3% | 35.2% and 32.8% and 38.1% | 30.4% and 28.5% and 34% | 26.4% and 36.1% and 29.3% | 20.9% and 19.6% and 22.6% | < 31.6 nM | – | – | – | – | –
C=CC(=O)N1CCN(c2nc(=O)n(-c3c(C)ccnc3C(C)C)c3nc(-c4c(O)cccc4F)c(F)cc23)C(C)C1 (stereo unspecified) | 87.7% and 105% and 106% | 103% and 97.4% and 81.4% | 95.8% and 89.4% and 109% | 96.2% and 111% and 105% | 113% (2×) and 100% | 115% and 100% and 101% | > 10000 nM | – | – | – | – | –
C=CCn1c(=O)c2cnc(Nc3ccc(N4CCN(C)CC4)cc3)nc2n1-c1cccc(C(C)(C)O)n1 | 93.8% and 101% and 99.7% | 85.8% and 102% and 88% | 81.1% and 84.7% and 74.9% | 43.1% and 45.4% and 41.5% | 35.6% and 37.4% and 39% | 30.4% and 38.4% and 35.2% | 821 nM and 869 nM and 787 nM | – | – | – | – | –
CC(=O)O[C@H]1C(=O)[C@@]2(C)[C@H]([C@H](OC(=O)c3ccccc3)[C@]3(O)C[C@H](OC(=O)[C@H](O)[C@@H](NC(=O)c4ccccc4)c4ccccc4)C(C)=C1C3(C)C)[C@]1(OC(C)=O)CO[C@@H]1C[C@@H]2O | 78.3% and 74% and 80.3% | 61.3% and 56% and 57.1% | 47.8% and 50% and 43.4% | 46% and 46.2% and 44.1% | 45.2% and 46.1% and 39.9% | 47.9% and 45% and 51.3% | 260 nM and 276 nM and 193 nM | – | – | – | – | –
CC(C)(O)C1CCC(Nc2ccc3ncc(-c4cccc(C(F)(F)F)c4)n3n2)CC1 (stereo unspecified) | 84.4% and 103% and 93.7% | 80.4% and 88.1% and 93.2% | 82.7% and 83.2% and 94.2% | 62.6% and 55.1% and 44.4% | 32.1% and 31.5% and 31.2% | 34.5% and 39.3% and 36.5% | 1640 nM and 1290 nM and 876 nM | – | – | – | – | –
CC(C)n1c(=O)n(C)c2cnc3cc(F)c(-c4ccc(OCCCN5CCCCC5)nc4)cc3c21 | 105% and 94.1% and 104% | 106% and 95% and 101% | 113% (2×) and 111% | 104% and 99.3% and 108% | 110% and 98.5% and 112% | 101% and 94.6% and 86.2% | > 10000 nM | – | – | – | – | –
CC1COCCN1c1cc(-c2ccnn2C)c2ccnc(-c3ccn[nH]3)c2n1 (stereo unspecified) | 94.2% and 88.2% and 75% | 73.7% and 75.3% and 83.1% | 65.4% and 62.4% and 50.8% | 47.7% and 49.3% and 49.1% | 37.1% and 41.5% and 48.4% | 26.8% and 33.3% and 28.8% | 901 nM and 1020 nM and 1110 nM | – | – | – | – | –
CC1COCCN1c1cc(C2(O)CC3CCC(C2)O3)c2cnn(-c3ccn[nH]3)c2n1 (stereo unspecified) | 93.3% and 104% and 95% | 76.1% and 79.5% and 78.4% | 52.4% and 54.4% and 51.5% | 39.1% and 38.5% and 37.8% | 30.1% and 36.1% and 34.6% | 20.1% and 19.8% and 21.7% | 447 nM and 516 nM and 435 nM | – | – | – | – | –
CC1COCCN1c1cc(C2(S(C)(=N)=O)CC2)nc(-c2ccnc3[nH]ccc23)n1 (stereo unspecified) | 112% and 90.9% and 98.4% | 106% (2×) and 86.8% | 105% and 99.7% and 115% | 105% and 84% and 101% | 89.7% and 86.5% and 112% | 63% and 58.7% and 63.3% | > 10000 nM | – | – | – | – | –
CCCS(=O)(=O)Nc1ccc(F)c(C(=O)c2c[nH]c3ncc(-c4ccc(Cl)cc4)cc23)c1F | 107% and 111% and 99.5% | 109% and 105% and 92.8% | 114% and 127% and 108% | 110% and 120% and 102% | 98.7% and 115% and 111% | 37.2% and 34.2% and 33.4% | 7890 nM and 7980 nM and 7600 nM | – | – | – | – | –
CC[C@@]1(O)C(=O)OCc2c1cc1n(c2=O)Cc2cc3c(CN(C)C)c(O)ccc3nc2-1 | 87.9% and 83.3% and 90.2% | – | 39.7% and 35.4% and 42.7% | – | – | – | 209 nM and 154 nM and 203 nM | 102% and 101% and 87.9% | 98.6% and 112% and 91.4% | 95.8% and 97.9% and 93.1% | 68.3% and 59.5% and 61.7% | –
CCc1c2c(nc3ccc(O)cc13)-c1cc3c(c(=O)n1C2)COC(=O)[C@]3(O)CC | 24% and 23.4% and 23.9% | – | 8.77% and 9.22% and 10.1% | – | – | – | 5.78 nM and 5.06 nM and 4.18 nM | 87.3% and 77.7% and 87.8% | 62.7% and 59.7% and 52.4% | 38% and 36% and 36.3% | 15.9% and 15.4% and 13.3% | –
CN(C)c1ccc(Nc2c3ccc(NC(=O)CCN4CCCC4)cc3nc3cc(NC(=O)CCN4CCCC4)ccc23)cc1 | 98.1% [middle of 12 runs] | 101% [middle of 12 runs] | 94.1% [middle of 12 runs] | 94.9% [middle of 12 runs] | 90.3% [middle of 12 runs] | 81.3% [middle of 12 runs] | – | – | – | – | – | > 10000
